According to PubChem BioAssay AID1984 (Sanford-Burnham Center for Chemical Genomics, 2009):
pIC50: −log10 of the molar value. Activity calls are given as the source filed them.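 Rule for the calls: active = EGFP signal decrease of at least 30% at 10 µM or well 3 SD below plate mean, unless failing retest; inactive = the rest, including hits failing retest or dose response.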

Each molecule was assayed against p/CIP-EGFP fusion (nuclear receptor coactivator 3, mouse) (UniProt Q05BA5) (assay: compounds lowering mouse p/CIP (NCOA3) protein levels – fluorescence, F442A cells, EGFP fusion, primary screen (AID 1984;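 note: dose response run in MEF cells carrying p/CIP-EGFP rather than F442A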)). Conditions: 16 h.
p/CIP-EGFP fusion (nuclear receptor coactivator 3, mouse), sequence (Q05BA5 1-1403): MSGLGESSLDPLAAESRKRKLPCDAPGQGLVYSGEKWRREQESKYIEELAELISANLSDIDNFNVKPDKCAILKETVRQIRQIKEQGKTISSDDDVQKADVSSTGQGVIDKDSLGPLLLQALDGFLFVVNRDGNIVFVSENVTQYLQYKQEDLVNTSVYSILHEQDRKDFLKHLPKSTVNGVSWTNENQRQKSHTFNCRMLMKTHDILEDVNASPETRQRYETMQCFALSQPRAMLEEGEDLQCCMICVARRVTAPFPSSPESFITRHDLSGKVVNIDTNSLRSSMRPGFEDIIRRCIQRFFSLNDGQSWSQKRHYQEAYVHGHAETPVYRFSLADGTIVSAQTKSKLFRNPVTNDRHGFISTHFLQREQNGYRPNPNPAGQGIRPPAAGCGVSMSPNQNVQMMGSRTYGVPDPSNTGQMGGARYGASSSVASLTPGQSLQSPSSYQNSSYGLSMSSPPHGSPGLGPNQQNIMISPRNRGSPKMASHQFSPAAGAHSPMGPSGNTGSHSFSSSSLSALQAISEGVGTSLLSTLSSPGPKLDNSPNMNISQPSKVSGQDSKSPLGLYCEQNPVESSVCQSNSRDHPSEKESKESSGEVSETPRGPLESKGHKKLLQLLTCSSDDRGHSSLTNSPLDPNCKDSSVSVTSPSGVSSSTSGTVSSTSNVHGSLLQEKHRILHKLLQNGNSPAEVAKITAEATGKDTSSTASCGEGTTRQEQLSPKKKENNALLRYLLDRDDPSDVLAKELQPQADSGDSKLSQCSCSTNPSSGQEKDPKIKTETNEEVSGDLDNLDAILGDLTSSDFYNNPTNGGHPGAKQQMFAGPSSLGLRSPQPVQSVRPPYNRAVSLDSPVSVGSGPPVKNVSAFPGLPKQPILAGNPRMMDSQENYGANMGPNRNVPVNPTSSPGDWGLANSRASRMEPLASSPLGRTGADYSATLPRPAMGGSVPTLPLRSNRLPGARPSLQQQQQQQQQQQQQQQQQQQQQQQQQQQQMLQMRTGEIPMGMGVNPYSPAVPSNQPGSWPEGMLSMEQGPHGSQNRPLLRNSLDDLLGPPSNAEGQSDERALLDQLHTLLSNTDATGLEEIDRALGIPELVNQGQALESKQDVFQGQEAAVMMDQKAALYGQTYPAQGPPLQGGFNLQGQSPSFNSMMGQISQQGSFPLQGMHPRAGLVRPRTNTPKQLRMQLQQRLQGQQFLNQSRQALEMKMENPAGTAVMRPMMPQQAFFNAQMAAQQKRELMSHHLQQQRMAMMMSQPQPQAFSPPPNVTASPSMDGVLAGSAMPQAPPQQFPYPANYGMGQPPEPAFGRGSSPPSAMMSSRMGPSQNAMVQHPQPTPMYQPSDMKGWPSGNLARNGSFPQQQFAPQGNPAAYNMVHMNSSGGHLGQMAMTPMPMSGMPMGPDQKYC

Q: How did the pIC50 turn out when `Cc1ccc(NC2=C/C(=N\S(=O)(=O)c3cccs3)c3ccccc3C2=O)c(C)c1` was run?
A: 4.71

Q: `Cc1oc2c(c1C(=O)NCc1cccnc1)C(=O)c1ccccc1C2=O` was tested. Which pIC50 did it give?
A: 5.37

Q: `COc1ccc(NC(=O)/C(Cl)=C(/Cl)S(=O)Cc2ccc(Cl)cc2)cn1` (centres undefined) was tested. Which IC50 did it give?
A: inactive

Q: With `CCOC(=O)c1c(C)[nH]c2c1-c1ccccc1C(=O)C2=O` as the molecule, how does the pIC50 read?
A: 5.46

Q: With `O=C1C(Nc2ccc(O)cc2)=C/C(=N/S(=O)(=O)c2cccs2)c2ccccc21` as the molecule, how does the pIC50 read?
A: 5.57

Q: With `COc1ccc(CS(=O)/C(Cl)=C(/Cl)C(=O)Nc2ccc(OC)nc2)cc1` (centres undefined) as the molecule, how does the pIC50 read?
A: 4.78

Q: With `Cc1ccccc1NC1=C/C(=N\S(=O)(=O)c2cccs2)c2ccccc2C1=O` as the molecule, how does the pIC50 read?
A: 4.79

Q: With `CCCc1nc2c(=O)n(C)c(=O)nc-2n(C)n1` as the molecule, how does the pIC50 read?
A: 5.30

Q: `CC(C)(C)c1cc[n+](C2=C([O-])c3ccccc3C(=O)/C2=N\S(=O)(=O)c2cccs2)cc1` was tested. Which pIC50 did it give?
A: 4.57

Q: How did the pIC50 turn out when `O=C1C(Cl)=C(NCCN2CCCCC2)C(=O)c2ccccc21` was run?
A: 4.83

Q: With `O=C1C(Nc2ccccc2)=C/C(=N/S(=O)(=O)c2cccs2)c2ccccc21` as the molecule, how does the pIC50 read?
A: 5.42

Q: With `Nc1ccc2c(c1)C(=O)C(=O)c1ccccc1-2` as the molecule, how does the pIC50 read?
A: 4.84

Q: `CCOC(=O)N=Nc1c2ccccc2c2nc3no[nH]c3nc12` was tested. Which pIC50 did it give?
A: 4.73

Q: How did the pIC50 turn out when `CC1CCN(S(=O)(=O)c2ccc3c(c2)C(=NO)c2cc(S(=O)(=O)N4CCC(C)CC4)ccc2-3)CC1` was run?
A: 5.64
